Measured values taken from PubChem BioAssay (NCI).
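All cell lines were grown in 96-well plates and treated with compound for 48 hours. GI50 marks 50% less growth. TGI marks complete inhibition of growth.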

Key:
Test in all cases: NCI anticancer screen, dose series, 48 h
TK-10 renal = system: TK-10 renal
UACC-62 melanoma = system: UACC-62 melanoma
HCT-15 colon = system: HCT-15 colon
EKVX NSCLC = system: EKVX NSCLC
UO-31 renal = system: UO-31 renal
CAKI-1 renal = system: CAKI-1 renal
MOLT-4 leukemia = system: MOLT-4 leukemia
NCI-H226 lung = system: NCI-H226 lung
SNB-19 CNS = system: SNB-19 CNS
NCI/ADR-RES ovarian = system: NCI/ADR-RES ovarian

For `CCOP(=O)(OCC)OC(C#N)c1ccc(-c2ccccc2)cc1` (stereo unspecified), the TGI (TK-10 renal) was 89.2 µM, the TGI (UACC-62 melanoma) was 29.2 µM and the TGI (HCT-15 colon) was 32.8 µM. It also gave a TGI (EKVX NSCLC) of over 100 µM, a TGI (UO-31 renal) of over 100 µM and a TGI (CAKI-1 renal) of 47.6 µM. It also gave a TGI (MOLT-4 leukemia) of 29.9 µM, a TGI (NCI-H226 lung) of over 100 µM and a TGI (SNB-19 CNS) of over 100 µM.
`COC1C2C=CC(C2)[C@H]1[N+](=O)[O-]` (stereo partly specified) was tested, and the TGI (TK-10 renal) was over 100 µM, the TGI (UACC-62 melanoma) was over 100 µM and the TGI (HCT-15 colon) was over 100 µM. The TGI (EKVX NSCLC) was over 100 µM, the TGI (UO-31 renal) was over 100 µM and the TGI (CAKI-1 renal) was over 100 µM. For the same compound, the TGI (MOLT-4 leukemia) was over 100 µM, the TGI (NCI-H226 lung) was over 100 µM and the TGI (SNB-19 CNS) was over 100 µM.
Compound `CCOc1cccc(/C=N/NC(=O)C(=O)Nc2cccc(C(F)(F)F)c2)c1O` has a GI50 (TK-10 renal) of 4.3 µM, a TGI (TK-10 renal) of over 100 µM and a GI50 (UACC-62 melanoma) of 1.06 µM. The TGI (UACC-62 melanoma) was 4.51 µM, the GI50 (HCT-15 colon) was 0.459 µM and the TGI (HCT-15 colon) was over 100 µM. For the same compound, the GI50 (UO-31 renal) was 0.63 µM, the TGI (UO-31 renal) was 18.5 µM and the GI50 (CAKI-1 renal) was 0.528 µM. It also gave a TGI (CAKI-1 renal) of 6.49 µM, a GI50 (MOLT-4 leukemia) of 1.35 µM and a TGI (MOLT-4 leukemia) of 22 µM. For the same compound, the GI50 (NCI/ADR-RES ovarian) was 2.02 µM, the TGI (NCI/ADR-RES ovarian) was 37.1 µM and the GI50 (NCI-H226 lung) was 3.96 µM. For the same compound, the TGI (NCI-H226 lung) was 50.1 µM, the GI50 (SNB-19 CNS) was 2.48 µM and the TGI (SNB-19 CNS) was over 100 µM.
For `CC1=C(C(=O)Nc2cccc(Cl)c2)C(c2ccccc2F)C(C(=O)Nc2cccc(Cl)c2)=C(C)N1`, the TGI (TK-10 renal) was 68.2 µM, the TGI (EKVX NSCLC) was 27.5 µM and the TGI (UO-31 renal) was 20.8 µM. It also gave a TGI (CAKI-1 renal) of 35.9 µM, a TGI (MOLT-4 leukemia) of 14.7 µM and a TGI (NCI-H226 lung) of 26 µM. It also gave a TGI (SNB-19 CNS) of over 100 µM.
Compound `CN(C)CCCNC(=O)c1ccc2c(c1)oc1cc3ccccc3c(=O)n12` has a GI50 (TK-10 renal) of 25.1 µM, a TGI (TK-10 renal) of over 50 µM and a GI50 (UACC-62 melanoma) of over 50 µM. It also gave a TGI (UACC-62 melanoma) of over 50 µM, a GI50 (HCT-15 colon) of 12.3 µM and a TGI (HCT-15 colon) of over 50 µM. For the same compound, the GI50 (EKVX NSCLC) was 17.6 µM, the TGI (EKVX NSCLC) was 45.7 µM and the GI50 (UO-31 renal) was 8.75 µM. The TGI (UO-31 renal) was 20.2 µM, the GI50 (CAKI-1 renal) was 11 µM and the TGI (CAKI-1 renal) was 28.6 µM. For the same compound, the GI50 (MOLT-4 leukemia) was 18.4 µM, the TGI (MOLT-4 leukemia) was over 50 µM and the GI50 (NCI/ADR-RES ovarian) was over 50 µM. The TGI (NCI/ADR-RES ovarian) was over 50 µM, the GI50 (SNB-19 CNS) was over 50 µM and the TGI (SNB-19 CNS) was over 50 µM.
Work on `CN(C)/N=C(/c1nc2ccc(Cl)cc2[nH]c1=O)C(O)c1ccc(C(O)/C(=N\N(C)C)c2nc3ccc(Cl)cc3[nH]c2=O)cc1` (stereo unspecified) yielded a TGI (TK-10 renal) of over 100 µM, a TGI (UACC-62 melanoma) of over 100 µM and a TGI (EKVX NSCLC) of over 100 µM. It also gave a TGI (UO-31 renal) of over 100 µM, a TGI (CAKI-1 renal) of over 100 µM and a TGI (MOLT-4 leukemia) of over 100 µM. The TGI (SNB-19 CNS) was over 100 µM.
With `Cc1nc2sccn2c1-c1csc(Nc2cccc(Cl)c2C)n1` the GI50 (UACC-62 melanoma) was 3.93 µM, the TGI (UACC-62 melanoma) was 19.8 µM and the GI50 (HCT-15 colon) was 3.62 µM. The TGI (HCT-15 colon) was 31.9 µM, the GI50 (UO-31 renal) was 3.05 µM and the TGI (UO-31 renal) was 23.7 µM. The GI50 (CAKI-1 renal) was 3.73 µM, the TGI (CAKI-1 renal) was 33.3 µM and the GI50 (MOLT-4 leukemia) was 4.22 µM. For the same compound, the TGI (MOLT-4 leukemia) was 26.8 µM, the GI50 (NCI/ADR-RES ovarian) was 3.45 µM and the TGI (NCI/ADR-RES ovarian) was 45.2 µM. It also gave a GI50 (NCI-H226 lung) of 3.24 µM, a TGI (NCI-H226 lung) of 48.5 µM and a GI50 (SNB-19 CNS) of 12.6 µM. It also gave a TGI (SNB-19 CNS) of over 100 µM.
For `COC(=O)[C@]12CCC(C)[C@H](C)[C@H]1C1=CCC3[C@@]4(C)CC[C@H](OC(C)=O)C(C)(C)C4CC[C@@]3(C)C1(C)C(O)C2` (stereo partly specified), the TGI (TK-10 renal) was over 100 µM, the TGI (UACC-62 melanoma) was over 100 µM and the TGI (EKVX NSCLC) was over 100 µM. It also gave a TGI (UO-31 renal) of over 100 µM, a TGI (CAKI-1 renal) of over 100 µM and a TGI (MOLT-4 leukemia) of over 100 µM. For the same compound, the TGI (NCI-H226 lung) was 83.1 µM and the TGI (SNB-19 CNS) was over 100 µM.
`C/C(=N\N(c1ccccc1)c1ccccc1)c1c(O)cc(C)oc1=O` showed a TGI (TK-10 renal) of over 100 µM, a TGI (UACC-62 melanoma) of over 100 µM and a TGI (HCT-15 colon) of over 100 µM. The TGI (EKVX NSCLC) was over 100 µM, the TGI (UO-31 renal) was over 100 µM and the TGI (CAKI-1 renal) was over 100 µM. The TGI (MOLT-4 leukemia) was over 100 µM, the TGI (NCI-H226 lung) was over 100 µM and the TGI (SNB-19 CNS) was over 100 µM.
